Test results: US8951969B2, “Compositions and methods for treating centrally mediated nausea and vomiting” (Helsinn Healthcare S.A., priority 2009, dated 2015)
Like-named read-outs stand apart in the source and are kept apart here.

Legend:
[1] = target: T1, NK1 receptors in human brain (Homo sapiens, UniProt P25103); assay: Netupitant PET receptor occupancy study (11C-GR205171 tracer); format: in vivo; settings: for mean NK1-RO: 96 hours post dose
T1 construct: 6 healthy male volunteers (2 per dose level) receiving single doses of netupitant; from tissue; host or cells: brain of healthy male human volunteers, in vivo
Method: This was a randomized, open-label, positron emission tomography (PET) study using 11C-GR205171 as tracer in 6 healthy male volunteers (2 per dose level) receiving single doses of netupitant (100, 300 or 450 mg) to investigate the degree of occupancy of NK1 receptors in human brain, and to determine the relationship between plasma concentration of netupitant and NK1 receptor occupancy (RO).

[2] = test system: highly emetogenic chemotherapy (HEC)-induced nausea and vomiting; assay: Phase 2 clinical efficacy study, netupitant + palonosetron + dexamethasone; format: in vivo, human; design: Total Control, Overall: percent of patients / Total Control, Acute: percent of patients / Total Control, Delayed: percent of patients / Complete Protection, Overall: percent of patients / Complete Protection, Acute: percent of patients / Complete Protection, Delayed: percent of patients: concentration or dose not given beside the values; settings: MFAS
Source text: A phase 2 trial evaluated three single doses of netupitant combined with palonosetron and dexamethasone compared to palonosetron alone and dexamethasone to obtain dose ranging information for netupitant used with oral palonosetron in the CINV patient population.
The objective of the study was to compare the efficacy and safety of three single oral doses of netupitant combined with oral palonosetron and given with dexamethasone, versus oral palonosetron-alone given with dexamethasone (without netupitant) for the prevention of highly emetogenic chemotherapy (HEC)-induced nausea and vomiting. The FDA-approved oral aprepitant regimen given with IV ondansetron and dexamethasone was included in the study as an active comparator for exploratory purposes. The FDA-approved oral palonosetron 0.5 mg. dose was used in each applicable treatment group in this study.
This was a multicenter, randomized, double-blind, double-dummy, parallel group, stratified study. Eligible patients were randomized (stratified by gender) to one of the following treatment groups: • Group 1—0.5 mg. oral palonosetron on Day 1 (with an oral dexamethasone standard regimen: 20 mg. on Day 1 and 8 mg. BID from Day 2 through Day 4) • Group 2—100 mg. oral netupitant plus 0.5 mg. oral palonosetron on Day 1 (with an oral dexamethasone adjusted regimen*: 12 mg. on Day 1 and 8 mg. daily from Day 2 through Day 4) • Group 3—200 mg. oral netupitant plus 0.5 mg. oral palonosetron on Day 1 (with an oral dexamethasone adjusted regimen*: 12 mg. on Day 1 and 8 mg. daily from Day 2 to Day 4) • Group 4—300 mg. oral netupitant plus 0.5 mg. oral palonosetron on Day 1 (with dexamethasone adjusted regimen*: 12 mg. on Day 1 and 8 mg. daily from Day 2 to Day 4) • Group 5—125 mg. oral aprepitant plus IV ondansetron 32 mg. (both on Day 1) then 80 mg. oral aprepitant on Day 2 and Day 3, (all with an oral dexamethasone adjusted regimen: 12 mg. on Day 1 and 8 mg. daily from Day 2 through Day 4)
The primary efficacy endpoint was the complete response rate (defined as no emetic episodes, no rescue medication) within 120 hours after the start of the highly emetogenic chemotherapy administration. Secondary efficacy endpoints were: • Complete response for the 0-24 hour interval (acute phase); and for the 25-120 hour interval (delayed phase); • Complete protection (defined as no emesis, no rescue therapy, no significant nausea); Total control (defined as no emesis, no rescue therapy and no nausea); No nausea (maximum VAS<5 mm); No significant nausea (maximum VAS<25 mm); No rescue medication; No emesis. These endpoints were evaluated for the 0-120 hour interval (overall), acute and delayed phase. • Time to first emetic episode, Time to first rescue medication, Time to treatment failure (based on time to the first emetic episode or time to the first rescue medication, whichever occurs first); • Severity of nausea for the overall, acute and delayed phase; ● Patient global satisfaction with anti-emetic therapy by means of VAS for each 24 hour interval.

[3] = Pharmacokinetics of combined dosage form: randomized, open, 3-way crossover study; format: in vivo; settings: human, fasting; for half-life / Tmax: median (range)
Method: The effects of palonosetron on the pharmacokinetics (PK) of netupitant and the effects of netupitant on the PK of palonosetron were examined in healthy volunteers. A randomized, open, 3-way crossover study was conducted. Each subject participated in 3 treatment periods, each lasting approximately 12 days (Day −1 to Day 11). The treatment periods were separated by wash-out periods of no less than 14 days (between Day 1 of any 2 consecutive treatment periods). Treatment A: oral netupitant 450 mg. administered as single dose of three 150 mg. capsules. Treatment B: oral palonosetron 0.75 mg. and oral netupitant 450 mg. administered simultaneously as three capsules of 150 mg. netupitant followed by 1 capsule of 0.75 mg. palonosetron. Treatment C: oral palonosetron 0.75 mg. administered as single dose as one 0.75 mg. capsule. Doses were administered under fasting conditions. Subjects fasted over-night for approximately 10 hours. Water, however, was permitted up to 1 hour pre-dose. Food intake was permitted 4 hours post-dose, and water was allowed ad libitum 1 hour post-dose. Doses were administered with the subject in an upright position. The subjects remained in an upright position for 4 hours post-dose. The capsules were swallowed whole with 250 mL of room-temperature tap water. Repeated PK blood sampling (for netupitant and/or palonosetron) was performed. The primary PK variables assessed for netupitant and palonosetron were the maximum plasma concentration observed (Cmax), the area under the plasma concentration versus time curve from time zero to the last quantifiable sampling time point (t) (AUC0-t), and the area under the plasma concentration versus time curve from time zero to infinity (AUC0-inf). The secondary PK variables assessed were the terminal elimination half-life (t1/2, z), and the time at which the maximum plasma concentration was observed (tmax). Results are depicted in below Tables 3 and 4, as well as FIGS. 2 and 3.

[4] = Netupitant + dexamethasone drug interaction study; format: in vivo, human
Method: The effect of netupitant on orally administered dexamethasone pharmacokinetics was evaluated in this study. This was a randomized, open, 3-period crossover study utilizing an incomplete Latin Square design where subjects were given dexamethasone alone, or oral Netupitant 100 mg., 300 mg. or 450 mg. each given with dexamethasone. Netupitant was given orally on Day 1 only. The dexamethasone regimen for each treatment was 20 mg. orally Day 1, followed by 8 mg. orally every 12 hours from Day 2 through Day 4. Nineteen subjects (12 male and 7 female) completed the study (i.e., all 3 treatment periods).

[5] = 0-24 h, Group 1 (Palo alone) / Group 5 (Aprepitant Regimen)
[6] = 0-120 h, Group 1 (Palo alone) / Group 5 (Aprepitant Regimen)
[7] = 25-120 h, Group 1 (Palo alone) / Group 5 (Aprepitant Regimen)
[8] = HEC (cisplatin) patients, Group 1 (Palo alone) / Group 5 (Aprepitant Regimen)
[9] = co-administration of 100 mg netupitant (oral, Day 1) vs dexamethasone alone
[10] = co-administration of 300 mg netupitant (oral, Day 1) vs dexamethasone alone
[11] = co-administration of 450 mg netupitant (oral, Day 1) vs dexamethasone alone

T1 sequence (P25103 whole entry): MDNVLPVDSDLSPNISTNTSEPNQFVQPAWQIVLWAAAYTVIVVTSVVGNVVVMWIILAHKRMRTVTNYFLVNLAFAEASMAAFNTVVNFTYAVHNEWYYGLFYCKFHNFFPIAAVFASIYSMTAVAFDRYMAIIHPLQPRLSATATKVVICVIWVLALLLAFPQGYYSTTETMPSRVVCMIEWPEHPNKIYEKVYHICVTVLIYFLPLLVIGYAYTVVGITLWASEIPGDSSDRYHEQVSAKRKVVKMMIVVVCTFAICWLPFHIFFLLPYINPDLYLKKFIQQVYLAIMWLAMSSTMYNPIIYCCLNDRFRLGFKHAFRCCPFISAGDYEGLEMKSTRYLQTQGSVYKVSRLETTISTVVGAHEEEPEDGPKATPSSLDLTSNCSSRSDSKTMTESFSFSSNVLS

Structure (SMILES): Cc1ccccc1-c1cc(N2CCN(C)CC2)ncc1N(C)C(=O)C(C)(C)c1cc(C(F)(F)F)cc(C(F)(F)F)c1 [Netupitant, 2-[3,5-bis(trifluoromethyl)phenyl]-N,2-dimethyl-N-[4-(2-methylphenyl)-6-(4-methylpiperazin-1-yl)pyridin-3-yl]propanamide]
- mean NK1-RO ([1]; 100 mg dose group, 4 of 6 regions): over 70%
- mean NK1-RO ([1]; 450 mg dose group, 5 of 6 regions): ≥ 80%
- NK1 receptor occupancy (NK1-RO) ([1]; 6 hours post dose, striatum, occipital cortex, frontal cortex and anterior cingulate, reached in 3 of 6 subjects (1 at 300 mg, 2 at 450 mg single oral dose)): ≥ 90%
- No Emesis, Overall: percent of patients ([2]; 0-120 h, netupitant 100 mg + palonosetron 0.5 mg oral Day 1, with dexamethasone): 87.4%
- No Emesis, Overall: percent of patients ([2]; 0-120 h, netupitant 200 mg + palonosetron 0.5 mg oral Day 1, with dexamethasone): 87.6%
- No Emesis, Overall: percent of patients ([2]; 0-120 h, netupitant 300 mg + palonosetron 0.5 mg oral Day 1, with dexamethasone): 91.1%
- CR, Overall Phase, 0-120 h: Percent of Patients ([2]; HEC (cisplatin) patients, netupitant 100 mg + palonosetron 0.5 mg oral Day 1, with dexamethasone): 87.4%
- CR, Overall Phase, 0-120 h: Percent of Patients ([2]; HEC (cisplatin) patients, netupitant 200 mg + palonosetron 0.5 mg oral Day 1, with dexamethasone): 87.6%
- CR, Overall Phase, 0-120 h: Percent of Patients ([2]; HEC (cisplatin) patients, netupitant 300 mg + palonosetron 0.5 mg oral Day 1, with dexamethasone): 89.6%
- Cmax ([3]; plasma netupitant, oral netupitant 450 mg single dose, mean (SD)): 650 ng/mL
- AUC(0-t) ([3]; plasma netupitant, oral netupitant 450 mg single dose, mean (SD), read-out: Netupitant AUC0-t): 22800 ng·h/mL
- AUC ([3]; plasma netupitant, oral netupitant 450 mg single dose, mean (SD), read-out: Netupitant AUCo-inf): 25900 ng·h/mL
- half-life ([3]; plasma netupitant, oral netupitant 450 mg single dose, read-out: Netupitant t1/2, z (converted)): 71.8 h
- Tmax ([3]; plasma netupitant, oral netupitant 450 mg single dose, read-out: Netupitant tmax): 4.5 h

Structure (SMILES): Cl.O=C1c2cccc3c2[C@H](CCC3)CN1[C@@H]1CN2CCC1CC2 [Palonosetron, (3aS)-2-[(S)-1-Azabicyclo[2.2.2]oct-3-yl]-2,3,3a,4,5,6-hexahydro-1-oxo-1Hberiz[de]isoquinoline hydrochloride]
- Complete Protection, Acute: percent of patients [2, 5]: 87.5%
- No Emesis, Acute: percent of patients [2, 5]: 89.7%
- No Rescue, Acute: percent of patients [2, 5]: 97.8%
- Total Control, Acute: percent of patients [2, 5]: 71.3%
- No Emesis, Overall: percent of patients [2, 6]: 76.5%
- No Rescue, Overall: percent of patients [2, 6]: 95.6%
- Complete Protection, Delayed: percent of patients [2, 7]: 73.5%
- No Emesis, Delayed: percent of patients [2, 7]: 80.1%
- No Rescue, Delayed: percent of patients [2, 7]: 97.1%
- Total Control, Delayed: percent of patients [2, 7]: 52.2%
- CR, Acute Phase, −24 h: Percent of Patients [2, 8]: 89.7%
- CR, Delayed Phase, 25-120 h: Percent of Patients [2, 8]: 80.1%
- CR, Overall Phase, 0-120 h: Percent of Patients [2, 8]: 76.5%
- No Nausea, Acute: percent of patients ([2]; maximum VAS<5 mm, 0-24 h, Group 1 (Palo alone) / Group 5 (Aprepitant Regimen)): 75.0%
- No Nausea, Overall: percent of patients ([2]; maximum VAS<5 mm, 0-120 h, Group 1 (Palo alone) / Group 5 (Aprepitant Regimen)): 50.7%
- No Nausea, Delayed: percent of patients ([2]; maximum VAS<5 mm, 25-120 h, Group 1 (Palo alone) / Group 5 (Aprepitant Regimen)): 53.7%
- No Significant Nauea, Acute: percent of patients ([2]; maximum VAS<25 mm, 0-24 h, Group 1 (Palo alone) / Group 5 (Aprepitant Regimen)): 93.4%
- No Significant Nauea, Overall: percent of patients ([2]; maximum VAS<25 mm, 0-120 h, Group 1 (Palo alone) / Group 5 (Aprepitant Regimen)): 79.4%
- No Significant Nauea, Delayed: percent of patients ([2]; maximum VAS<25 mm, 25-120 h, Group 1 (Palo alone) / Group 5 (Aprepitant Regimen)): 80.9%
- Total Control, Overall: percent of patients ([2]; no emesis, no rescue therapy and no nausea, 0-120 h, Group 1 (Palo alone) / Group 5 (Aprepitant Regimen)): 50.0%
- Complete Protection, Overall: percent of patients ([2]; no emesis, no rescue therapy, no significant nausea, 0-120 h, Group 1 (Palo alone) / Group 5 (Aprepitant Regimen)): 69.9%
- half-life ([3]; plasma palonosetron, oral palonosetron 0.75 mg single dose, read-out: Palonosetron t1/2, z (converted)): 34.7 h
- Tmax ([3]; plasma palonosetron, oral palonosetron 0.75 mg single dose, read-out: Palonosetron tmax): 5.02 h

Structure (SMILES): C[C@@H]1C[C@H]2[C@@H]3CCC4=CC(=O)C=C[C@]4(C)[C@@]3(F)[C@@H](O)C[C@]2(C)[C@@]1(O)C(=O)CO [dexamethasone]
- Dexamethasone Cmin on Days 2-4, fold increase ([4]; co-administration of 100 mg netupitant): approximately 2.8 fold
- AUC0-24 (Day 1) of dexamethasone, fold increase [4, 9]: 1.5 fold
- AUC24-36 (Day 2) of dexamethasone, fold increase [4, 9]: 2.1 fold
- AUC84-108 and AUC84-inf (Day 4) of dexamethasone, fold increase [4, 9]: 1.7 fold
- Dexamethasone Cmin on Days 2-4, fold increase ([4]; co-administration of 300 mg netupitant): ~4.3 fold
- AUC0-24 (Day 1) of dexamethasone, fold increase [4, 10]: 1.7 fold
- AUC24-36 (Day 2) of dexamethasone, fold increase [4, 10]: 2.4 fold
- AUC84-108 and AUC84-inf (Day 4) of dexamethasone, fold increase [4, 10]: 2.4 fold
- Dexamethasone Cmin on Days 2-4, fold increase ([4]; co-administration of 450 mg netupitant): ~4.6 fold
- AUC0-24 (Day 1) of dexamethasone, fold increase [4, 11]: 1.8 fold
- AUC24-36 (Day 2) of dexamethasone, fold increase [4, 11]: 2.6 fold
- AUC84-108 and AUC84-inf (Day 4) of dexamethasone, fold increase [4, 11]: 2.7 fold
- Dexamethasone Cmax on Day 1, fold increase ([4]; co-administration with 100 mg netupitant): 1.1 fold
- Dexamethasone Cmax on Day 1, fold increase ([4]; co-administration with 300 mg netupitant): 1.1 fold
- Dexamethasone Cmax on Day 1, fold increase ([4]; co-administration with 450 mg netupitant): 1.2 fold
- Dexamethasone Cmax on Day 2 and Day 4, fold increase ([4]; subjects administered netupitant (100, 300 or 450 mg)): approximately 1.7 fold
